# Results published in US20190231751A1, “TREATMENT OF FIBROTIC DISORDERS WITH JUN N-TERMINAL KINASE INHIBITORS” (Imago Pharmaceuticals, Inc., priority 2016, published 2019).
# pIC50: −log10 of the molar value.
# Legend:
# Assay type in all cases: biochemical
# JNK1 = JNK1 (Homo sapiens, UniProt P45983); experiment: In vitro JNK1 inhibition (Table 1)
# Protocol: (§1) In vitro assays for the determination of JNK activities are known in the art and exemplary assay formats are described herein.
# (§2) IC50 values in Table 1 were determined using the procedures as described in U.S. Pat. No. 8,450,353.
# JNK3 = JNK3 (Homo sapiens, UniProt P53779); experiment: In vitro JNK3 inhibition (Table 1)
# JNK3, sequence (P53779 whole entry, species assumed): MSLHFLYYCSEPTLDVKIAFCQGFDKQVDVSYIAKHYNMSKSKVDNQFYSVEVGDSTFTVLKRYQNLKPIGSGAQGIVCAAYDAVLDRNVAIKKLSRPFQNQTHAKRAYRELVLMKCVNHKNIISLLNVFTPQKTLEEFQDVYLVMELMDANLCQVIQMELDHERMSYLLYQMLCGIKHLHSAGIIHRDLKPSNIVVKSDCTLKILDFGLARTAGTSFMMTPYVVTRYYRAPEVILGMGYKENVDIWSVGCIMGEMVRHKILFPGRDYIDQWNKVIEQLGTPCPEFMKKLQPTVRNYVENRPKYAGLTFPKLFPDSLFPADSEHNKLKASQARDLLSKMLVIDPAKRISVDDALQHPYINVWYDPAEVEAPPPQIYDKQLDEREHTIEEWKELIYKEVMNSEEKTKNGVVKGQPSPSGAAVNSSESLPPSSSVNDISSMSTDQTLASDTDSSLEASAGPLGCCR
# Protocol: as §1, §2
# JNK2 = JNK2 (Homo sapiens, UniProt P45984); experiment: In vitro JNK2 inhibition (Table 1)
# JNK2, sequence (P45984 whole entry, species assumed): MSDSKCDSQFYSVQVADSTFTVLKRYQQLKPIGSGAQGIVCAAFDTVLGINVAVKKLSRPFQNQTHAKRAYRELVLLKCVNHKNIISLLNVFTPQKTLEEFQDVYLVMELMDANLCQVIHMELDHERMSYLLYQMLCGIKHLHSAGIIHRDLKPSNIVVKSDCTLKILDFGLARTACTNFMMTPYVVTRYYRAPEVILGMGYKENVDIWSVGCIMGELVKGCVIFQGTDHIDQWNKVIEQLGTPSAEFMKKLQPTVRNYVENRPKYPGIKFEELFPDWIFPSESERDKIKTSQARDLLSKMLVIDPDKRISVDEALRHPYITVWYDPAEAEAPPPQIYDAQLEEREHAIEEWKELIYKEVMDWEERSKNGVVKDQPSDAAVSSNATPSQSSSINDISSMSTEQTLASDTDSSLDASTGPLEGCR
# Protocol: as §1, §2
# JNK1, sequence (P45983 whole entry, species assumed): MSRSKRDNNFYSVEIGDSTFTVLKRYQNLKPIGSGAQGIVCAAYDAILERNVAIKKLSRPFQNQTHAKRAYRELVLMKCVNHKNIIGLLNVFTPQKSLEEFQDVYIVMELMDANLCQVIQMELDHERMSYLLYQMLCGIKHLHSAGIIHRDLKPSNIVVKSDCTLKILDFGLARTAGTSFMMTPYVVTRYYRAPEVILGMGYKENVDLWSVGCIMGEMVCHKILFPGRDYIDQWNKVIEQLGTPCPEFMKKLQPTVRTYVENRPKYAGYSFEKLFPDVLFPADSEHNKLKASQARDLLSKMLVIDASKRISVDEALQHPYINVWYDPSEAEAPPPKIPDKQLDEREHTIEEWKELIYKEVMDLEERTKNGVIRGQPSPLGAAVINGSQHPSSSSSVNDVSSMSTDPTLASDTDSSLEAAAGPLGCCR
pIC50 (JNK1),pIC50 (JNK3),pIC50 (JNK2),SMILES
> 7.00,–,–,"O=C(Cn1c(=O)ccc2cnccc21)Nc1ccsc1-c1cscn1 [2-(2-oxo-1,6-naphthyridin-1(2H)-yl)-N-(2-(thiazol-4-yl)thiophen-3-yl)acetamide]"
> 7.00,> 7.00,–,O=C(Cn1c(=O)ccc2cc(C(F)(F)F)ccc21)Nc1ccsc1-c1cscn1 [2-(2-oxo-6-(trifluoromethyl)quinolin-1(2H)-yl)-N-(2-(thiazol-4-yl)thiophen-3-yl)acetamide]
< 5.00,< 5.00,–,COc1ccc(CC(=O)Nc2ccsc2-c2c[nH]c(C)n2)cc1 [2-(4-methoxyphenyl)-N-(2-(2-methyl-1H-imidazol-4-yl)thiophen-3-yl)acetamide]
–,< 5.00,–,COc1ccc(CC(=O)Nc2ccsc2N2CCOC2=O)cc1 [2-(4-methoxyphenyl)-N-(2-(2-oxooxazolidin-3-yl)thiophen-3-yl)acetamide]
–,< 5.00,–,"COc1ccc(CC(=O)Nc2ccsc2-c2nc(-c3ccncc3)n[nH]2)cc1 [2-(4-methoxyphenyl)-N-(2-(3-(pyridin-4-yl)-1H-1,2,4-triazol-5-yl)thiophen-3-yl)acetamide]"
–,–,4.30 to 5.00,"COc1ccc(CC(=O)Nc2ccsc2-c2nc(C(F)(F)F)n[nH]2)cc1 [2-(4-methoxyphenyl)-N-(2-(3-(trifluoromethyl)-1H-1,2,4-triazol-5-yl)thiophen-3-yl)acetamide]"
–,–,5.00 to 7.00,"COc1ccc(CC(=O)Nc2ccsc2-c2nc(C)n[nH]2)cc1 [2-(4-methoxyphenyl)-N-(2-(3-methyl-1H-1,2,4-triazol-5-yl)thiophen-3-yl)acetamide]"
> 7.00,> 7.00,–,"O=C(Cc1cccc2ncsc12)Nc1scc(Br)c1-c1ncn[nH]1 [2-(benzo[d]thiazol-7-yl)-N-(4-bromo-3-(1H-1,2,4-triazol-5-yl)thiophen-2-yl)acetamide]"
< 5.00,< 5.00,–,"Cc1nc(-c2sccc2NC(=O)Cc2cccc3ccccc23)n(C)n1 [N-(2-(1,3-dimethyl-1H-1,2,4-triazol-5-yl)thiophen-3-yl)-2-(naphthalen-1-yl)acetamide]"
< 5.00,< 5.00,–,Cn1ccnc1-c1sccc1NC(=O)Cc1cccc2ccccc12 [N-(2-(1-methyl-1H-imidazol-2-yl)thiophen-3-yl)-2-(naphthalen-1-yl)acetamide]
< 5.00,< 5.00,–,Cn1ccc(-c2sccc2NC(=O)Cc2cccc3ccccc23)n1 [N-(2-(1-methyl-1H-pyrazol-3-yl)thiophen-3-yl)-2-(naphthalen-1-yl)acetamide]
< 5.00,< 5.00,–,"COc1ccc(CC(=O)Nc2ccsc2-n2cncn2)cc1 [N-(2-(1H-1,2,4-triazol-1-yl)thiophen-3-yl)-2-(4-methoxyphenyl)acetamide]"
–,5.00 to 7.00,–,O=C(Cc1cccc2ccccc12)Nc1ccsc1-n1ccnc1 [N-(2-(1H-imidazol-1-yl)thiophen-3-yl)-2-(naphthalen-1-yl)acetamide]
< 5.00,< 5.00,–,COc1ccc(CC(=O)Nc2ccsc2-c2c[nH]cn2)cc1 [N-(2-(1H-imidazol-4-yl)thiophen-3-yl)-2-(4-methoxyphenyl)-acetamide]
< 5.00,< 5.00,–,COc1ccc(CC(=O)Nc2ccsc2-n2cccn2)cc1 [N-(2-(1H-pyrazol-1-yl)thiophen-3-yl)-2-(4-methoxyphenyl)-acetamide]
< 5.00,< 5.00,–,"Cc1nc(-c2sccc2NC(=O)CN2C(=O)CCc3ccccc32)c[nH]1 [N-(2-(2-methyl-1H-imidazol-4-yl)thiophen-3-yl)-2-(2-oxo-3,4-dihydroquinolin-1(2H)-yl)acetamide]"
5.00 to 7.00,5.00 to 7.00,–,"COc1ccc(CC(=O)Nc2ccsc2-n2nccn2)cc1 [N-(2-(2H-1,2,3-triazol-2-yl)thiophen-3-yl)-2-(4-methoxyphenyl)acetamide]"
< 5.00,< 5.00,–,"COc1ccc(CC(=O)Nc2ccsc2-c2nnc(C(C)C)o2)cc1 [N-(2-(5-isopropyl-1,3,4-oxadiazol-2-yl)thiophen-3-yl)-2-(4-methoxyphenyl)acetamide]"
> 7.00,–,–,"O=C(Cn1c(=O)ccc2cc(F)c(F)cc21)Nc1sccc1-c1ncon1 [N-(3-(1,2,4-oxadiazol-3-yl)thiophen-2-yl)-2-(6,7-difluoro-2-oxoquinolin-1(2H)-yl)acetamide]"
5.00 to 7.00,5.00 to 7.00,–,COCn1nnnc1-c1ccsc1NC(=O)Cc1ccc(OC)cc1 [N-(3-(1-(methoxymethyl)-1H-tetrazol-5-yl)thiophen-2-yl)-2-(4-methoxyphenyl)acetamide]
> 7.00,–,–,"O=C(CN1C(=O)CCc2ccccc21)Nc1sccc1-c1ncn[nH]1 [N-(3-(1H-1,2,4-triazol-5-yl)thiophen-2-yl)-2-(2-oxo-3,4-dihydroquinolin-1(2H)-yl)acetamide]"

pIC50 (JNK1),pIC50 (JNK3),pIC50 (JNK2),SMILES
> 7.00,> 7.00,–,"O=C(Cc1cccc2cnccc12)Nc1scnc1-c1cscn1 [N-(4,4′-bithiazol-5-yl)-2-(isoquinolin-5-yl)acetamide]"
> 7.00,> 7.00,–,"O=C(Cc1cccc2ncc(C(F)(F)F)cc12)Nc1scc(Br)c1-c1nc[nH]n1 [N-(4-bromo-3-(1H-1,2,4-triazol-3-yl)thiophen-2-yl)-2-(3-(trifluoromethyl)quinolin-5-yl)acetamide]"
> 7.00,–,–,"O=C(Cc1cccc2cc(F)cnc12)Nc1scc(Br)c1-c1nc[nH]n1 [N-(4-bromo-3-(1H-1,2,4-triazol-3-yl)thiophen-2-yl)-2-(3-fluoroquinolin-8-yl)acetamide]"
> 7.00,> 7.00,–,"O=C(Cn1c(=O)ccc2c(C(F)(F)F)cccc21)Nc1scc(Br)c1-c1ncn[nH]1 [N-(4-bromo-3-(1H-1,2,4-triazol-5-yl)thiophen-2-yl)-2-(2-oxo-5-(trifluoromethyl)quinolin-1(2H)-yl)acetamide]"
> 7.00,–,–,"O=C(Cc1cc2ncccc2cc1F)Nc1scc(Br)c1-c1ncn[nH]1 [N-(4-bromo-3-(1H-1,2,4-triazol-5-yl)thiophen-2-yl)-2-(6-fluoroquinolin-7-yl)acetamide]"
> 7.00,–,–,"Cc1cn2c(CC(=O)Nc3scc(Br)c3-c3ncn[nH]3)csc2n1 [N-(4-bromo-3-(1H-1,2,4-triazol-5-yl)thiophen-2-yl)-2-(6-methylimidazo[2,1-b]thiazol-3-yl)acetamide]"
> 7.00,> 7.00,–,"O=C(Cc1cc(F)cc2ncccc12)Nc1scc(Br)c1-c1ncn[nH]1 [N-(4-bromo-3-(1H-1,2,4-triazol-5-yl)thiophen-2-yl)-2-(7-fluoroquinolin-5-yl)acetamide]"
> 7.00,> 7.00,–,"O=C(Cc1ccc(F)c2ncccc12)Nc1scc(Br)c1-c1ncn[nH]1 [N-(4-bromo-3-(1H-1,2,4-triazol-5-yl)thiophen-2-yl)-2-(8-fluoroquinolin-5-yl)acetamide]"
> 7.00,–,–,"O=C(Cc1cccc2nccn12)Nc1scc(Br)c1-c1ncn[nH]1 [N-(4-bromo-3-(1H-1,2,4-triazol-5-yl)thiophen-2-yl)-2-(imidazo[1,2-a]pyridin-5-yl)acetamide]"
> 7.00,> 7.00,–,"O=C(Cc1cccc2ccncc12)Nc1scc(Br)c1-c1ncn[nH]1 [N-(4-bromo-3-(1H-1,2,4-triazol-5-yl)thiophen-2-yl)-2-(isoquinolin-8-yl)acetamide]"
> 7.00,–,–,"O=C(CN1C(=O)C(F)(F)c2ccccc21)Nc1scc(Br)c1-c1nnc[nH]1 [N-(4-bromo-3-(4H-1,2,4-triazol-3-yl)thiophen-2-yl)-2-(3,3-difluoro-2-oxoindolin-1-yl)acetamide]"
> 7.00,> 7.00,–,"O=C(Cc1ccnc2ccccc12)Nc1scc(Br)c1-c1nnc[nH]1 [N-(4-bromo-3-(4H-1,2,4-triazol-3-yl)thiophen-2-yl)-2-(quinolin-4-yl)acetamide]"
> 7.00,> 7.00,–,"O=C(CN1C(=O)CCc2ncccc21)Nc1scc(Br)c1-c1nccs1 [N-(4-bromo-3-(thiazol-2-yl)thiophen-2-yl)-2-(2-oxo-3,4-dihydro-1,5-naphthyridin-1(2H)-yl)acetamide]"
> 7.00,> 7.00,–,"CN1CCN(CCCn2cnc(-c3c(Cl)csc3NC(=O)Cn3c(=O)ccc4cc(C(F)(F)F)ccc43)n2)CC1 [N-(4-chloro-3-(1-(3-(4-methylpiperazin-1-yl)propyl)-1H-1,2,4-triazol-3-yl)thiophen-2-yl)-2-(2-oxo-6-(trifluoromethyl)quinolin-1(2H)-yl)acetamide]"
> 7.00,–,–,"O=C(Cc1ccc(C(F)(F)F)c2ncccc12)Nc1scc(Cl)c1-c1ncn[nH]1 [N-(4-chloro-3-(1H-1,2,4-triazol-5-yl)thiophen-2-yl)-2-(8-(trifluoromethyl)quinolin-5-yl)acetamide]"
> 7.00,> 7.00,–,"CCc1n[nH]c(-c2c(Cl)csc2NC(=O)CN2C(=O)CCc3ncccc32)n1 [N-(4-chloro-3-(3-ethyl-1H-1,2,4-triazol-5-yl)thiophen-2-yl)-2-(2-oxo-3,4-dihydro-1,5-naphthyridin-1(2H)-yl)acetamide]"
> 7.00,–,–,"CC(C)c1n[nH]c(-c2c(Cl)csc2NC(=O)CN2C(=O)CCc3ncccc32)n1 [N-(4-chloro-3-(3-isopropyl-1H-1,2,4-triazol-5-yl)thiophen-2-yl)-2-(2-oxo-3,4-dihydro-1,5-naphthyridin-1(2H)-yl)acetamide]"
> 7.00,> 7.00,–,N#Cc1csc(NC(=O)Cc2cccc3ncccc23)c1-c1cnccn1 [N-(4-cyano-3-(pyrazin-2-yl)thiophen-2-yl)-2-(quinolin-5-yl)acetamide]
> 7.00,> 7.00,–,"Cc1n[nH]c(-c2c(C)csc2NC(=O)Cc2cccc3ncccc23)n1 [N-(4-methyl-3-(3-methyl-1H-1,2,4-triazol-5-yl)thiophen-2-yl)-2-(quinolin-5-yl)acetamide]"
–,5.00 to 7.00,–,"Cc1nnc(-c2c(C)csc2NC(=O)Cc2ccc(-c3ccncc3)cc2)[nH]1 [N-(4-methyl-3-(5-methyl-4H-1,2,4-triazol-3-yl)thiophen-2-yl)-2-(4-(pyridin-4-yl)phenyl)acetamide]"
